From ChEMBL document CHEMBL1201862, “PubChem BioAssay data set” (2004) come the findings set out here.

Some test systems named below: 786-0; COLO 205; HCC 2998; HCT-116; HL-60; IGROV-1; M14; MDA-MB-231; MDA-MB-435; MDA-N; OVCAR-4; PC-3; SF-268; SF-295; SK-MEL-28; SK-MEL-2; SR; U-251; UACC-257; UO-31.
Assay in all cases: NCI tumour cell line growth inhibition, 48 h

Molecules are shown by their SMILES.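 Tested at 5 concentrations; 48 h exposure; 96-well plates; endpoints linearly interpolated, else capped at highest concentration. GI50: concentration for 50% inhibition of growth.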 Calls of active or inactive are those of the source. Cut-off read from the data, not from the text of the source: active = GI50 up to about 1.1 µM and inactive = higher.

For `O=C(O)c1ccccc1/C=C1/Nc2ccccc2C1=O`, the GI50 is > 100 µM (inactive) in the test on 786-0; > 100 µM (inactive) with COLO 205; > 100 µM (inactive) in the test on HCC 2998; 81.5 µM (inactive) in the test with HCT-116; 64 µM (inactive) in the test with HL-60; 24.2 µM (inactive) in the test with IGROV-1. In addition, the GI50 in the test on M14 is > 100 µM (inactive); with MDA-MB-231, > 100 µM (inactive); in the test with MDA-MB-435, > 100 µM (inactive); in the test on MDA-N, > 100 µM (inactive); with OVCAR-4, 63.4 µM (inactive); in the test on PC-3 it was > 100 µM (inactive). The GI50 with SF-268 was 93.1 µM (inactive); in the test with SF-295, > 100 µM (inactive); in the test with SK-MEL-28, > 100 µM (inactive); in the test with SK-MEL-2, > 100 µM (inactive); in the test on SR, 66.5 µM (inactive); in the test with U-251 it was > 100 µM (inactive). For the same compound, the figures for the GI50 in the test with UACC-257 and in the test on UO-31 were > 100 µM (inactive) and 50 µM (inactive), respectively.

In the case of `CC(=O)OCC1OC(n2c(C)c(C)c(C)c(C#N)c2=S)C(OC(C)=O)C(OC(C)=O)C1OC(C)=O` (stereo not given), the GI50 in the test with 786-0 was 23.7 µM (inactive); with COLO 205, > 100 µM (inactive); with HCC 2998 it was > 100 µM (inactive); in the test with HCT-116, 28.6 µM (inactive); in the test on HL-60 it was > 100 µM (inactive); with IGROV-1, > 100 µM (inactive). The GI50 was 44 µM (inactive) in the test on M14; > 100 µM (inactive) in the test on MDA-MB-231; > 100 µM (inactive) with MDA-MB-435; > 100 µM (inactive) in the test on MDA-N; > 100 µM (inactive) in the test on OVCAR-4; > 100 µM (inactive) with PC-3. Further, the GI50 with SF-268 is 95.5 µM (inactive); in the test with SF-295 it was 14.8 µM (inactive); in the test on SK-MEL-28, > 100 µM (inactive); in the test on SK-MEL-2, 31.9 µM (inactive); in the test on SR, > 100 µM (inactive); with U-251 it was 27.6 µM (inactive). The GI50 in the test with UACC-257 is > 100 µM (inactive); with UO-31, 14.7 µM (inactive).

`CCN(CCO)CCNc1ccc(C)c2sc3ccccc3c(=O)c12`: the GI50 in the test with 786-0 was 2.96 µM (inactive); in the test on COLO 205 it was 1.63 µM (inactive); in the test on HCC 2998, 2.28 µM (inactive); with HCT-116 it was 2.88 µM (inactive); in the test on HL-60, 3.37 µM (inactive); in the test on IGROV-1 it was 4.2 µM (inactive). Further, the GI50 in the test on M14 is 1.78 µM (inactive); in the test with MDA-MB-231, 1.88 µM (inactive); in the test with MDA-MB-435 it was 1.96 µM (inactive); in the test on MDA-N, 1.74 µM (inactive); with OVCAR-4, 7.8 µM (inactive); with PC-3, 3.31 µM (inactive). The GI50 in the test with SF-268 is 6.85 µM (inactive); with SF-295, 3.82 µM (inactive); with SK-MEL-28, 2.02 µM (inactive); in the test on SK-MEL-2, 3.59 µM (inactive); in the test on SR, 6.01 µM (inactive); in the test on U-251, 3.69 µM (inactive). The GI50 in the test on UACC-257 was 2.75 µM (inactive); with UO-31, 5.41 µM (inactive).

Take `O=C1c2ccccc2-c2c1c1ccccc1c(=O)n2CCO`: the GI50 with 786-0 is 6.03 µM (inactive); in the test on COLO 205, 4.9 µM (inactive); in the test with HCC 2998 it was 24.8 µM (inactive); in the test on HCT-116 it was 4.83 µM (inactive); in the test on HL-60, 2.4 µM (inactive); with IGROV-1, 20.5 µM (inactive). In addition, the GI50 in the test on M14 was > 100 µM (inactive); with MDA-MB-231 it was 46 µM (inactive); in the test on MDA-MB-435, > 72.9 µM (inactive); in the test on MDA-N, 51.8 µM (inactive); in the test on OVCAR-4 it was 33.2 µM (inactive); in the test on PC-3 it was 21.5 µM (inactive). Besides, the GI50 in the test with SF-268 is 19.1 µM (inactive); with SF-295 it was 11.8 µM (inactive); in the test on SK-MEL-28, > 76.6 µM (inactive); in the test with SK-MEL-2, 39.6 µM (inactive); in the test with SR, 2.24 µM (inactive); in the test with U-251, 8.61 µM (inactive). Besides, the GI50 with UACC-257 was > 79.6 µM (inactive); in the test on UO-31, 4.06 µM (inactive).

For `O=C1/C(=N/CCc2cc(Br)c(O)c(Br)c2)C=C(O)c2cccnc21`, the GI50 in the test on 786-0 is 2.22 µM (inactive); in the test with COLO 205 it was 1.75 µM (inactive); with HCC 2998, 6.78 µM (inactive); in the test on HCT-116, 2.46 µM (inactive); in the test on HL-60, 4.88 µM (inactive); in the test on IGROV-1 it was 2.07 µM (inactive). The GI50 in the test on M14 is 1.31 µM (inactive); with MDA-MB-231 it was 7.35 µM (inactive); in the test with MDA-MB-435, 0.344 µM (active); in the test with MDA-N, 0.4 µM (active); in the test on OVCAR-4, 2.72 µM (inactive); in the test with PC-3, 3.92 µM (inactive). For the same compound, the GI50 in the test on SF-268 is 2.19 µM (inactive); in the test on SF-295 it was 1.2 µM (inactive); in the test with SK-MEL-28, 1.78 µM (inactive); with SK-MEL-2 it was 1.52 µM (inactive); in the test on SR, 0.771 µM (active); with U-251, 1.93 µM (inactive). Also, the results for the GI50 in the test on UACC-257 and in the test on UO-31 were 1.37 µM (inactive) and 3.12 µM (inactive), respectively.
